# In patent US20250161377A1, “COMPOSITION COMPRISING AT LEAST ONE BIFIDOBACTERIUM STRAIN FOR THE TREATMENT OF VITILIGO” (INSTITUT NATIONAL DE LA SANTE ET DE LA RECHERCHE MEDICALE, priority 2022, published 2025):
# Test system: Primary human keratinocytes (NHK)
# Experiment: Mitochondrial ROS in keratinocytes, dihydrorhodamine labeling quantified by FACS
# Format: cell-based
# Details: NHK pretreated one hour, basal untreated = 100
# Method: Primary human keratinocytes (NHK) were isolated from the foreskin of healthy children and cultured in a serum-free medium supplemented with bovine pituitary extract (250 μg/mL) and EGF (0.25 ng/mL). The NHKs are then seeded onto 6-well plates and incubated in a controlled atmosphere. When the keratinocytes reach 70 to 80% confluence, the cells are pretreated, or not, for one hour with various components. As a positive control, the NHKs are pretreated for one hour with […] (100 μM). The plates are then washed 3 times with a PBS solution before incubating the pretreated NHKs for one hour in the presence of H2O2 (100 μM) or LPS (100 ng/mL). At the end of the incubation, the cells are incubated in a solution of dihydrorhodamine (5 μM) for 30 minutes at 37° C., which allows for the labeling of ROS, particularly mitochondrial ROS. After 3 washes with a PBS solution, the mitochondrial ROS are quantified by FACS.
substance,measurement,setting,value
Sinapine,Mitochondrial ROS Level (%),"no stress treatment (—), sinapine 100 μM",100%
same,Mitochondrial ROS Level (%),"then H2O2 (100 μM) one hour, H2O2 alone = 352",100%
same,Mitochondrial ROS Level (%),"then LPS (100 ng/mL) one hour, LPS alone = 124",97%
